Read-outs that look alike come from different tables or passages of the source. Blank lines part the entries; values can stand above or below the compound they belong to.
Assays:
[1] = rcm bond, toluene, 0.25 h
[2] = system: mouse breast tumor cells (4T1 cells); test: Boyden chamber cell migration assay, 4T1; assay type: cell-based; details: for IC50: 4T1 tumor cells, 6-8 hours, read-out: IC50 value, chamber cell migration assay; for inhibitory activity on tumor cell migration: 4T1 chamber assay
[3] = Mouse blood plasma stability
Protocol: The biological evaluation of the compounds (in terms of their ability to inhibit cell migration) was accomplished in a Boyden chamber cell migration assay. In this assay, mouse breast tumor cells (4T1 cells) or endothelial cells (HUVECs) are seeded on the upper chamber of a transwell insert. Growth factor-containing serum is added to the lower chamber.
In anticipation of subsequent in vivo evaluation of these compounds and others, preliminary metabolic stability studies were carried out. […] As a test of the ‘deactivation hypothesis’, the hydrolysis product of macrolactone 48 was prepared (Scheme 27) and tested for its activity against tumor cell migration.

[4] = system: adherent cells (e.g. KYSE-520 cells); test: Wound healing (scratch) assay, preliminary (Table 2); assay type: cell-based; details: 28 to 30 h, tested concentrations 200, 100, 50, 25, 10 μM
Protocol: The wound healing assay was performed based on the method described by Nakae et al. (Nakae et al., J. Antibiotics (2000), 53, 1130-1136). Briefly, adherent cells were grown in a suitable media to confluence (e.g. KYSE-520 cells in RPMI-1640 with 10% FBS). Cells were starved for 24 h in serum free media A scratch (ca. 0.5 mm) was applied and the cell layer was washed twice with PBS after removal of the media. Fresh, serum free media with the test compound at the desired concentration was added and the cells were incubated for 28 to 30 h at 37° C., 5% CO2. The scratch size was compared to that observed for cells exposed to 100 μM Migrastatin. Test compounds associated with a scratch size equal to or larger than that observed for cells exposed to 100 μM Migrastatin were deemed to have cell migration inhibitory activity at least equal to Migrastatin.

[5] = system: HUVEC; test: Tube formation assay; assay type: cell-based, human; details: HUVEC on matrigel, 16-18 h, tested concentrations 200, 100, 50, 25, 10 μM
Protocol: A protocol was designed based on the instructions from the provider (BD Bioscience, San Jose, Calif.). Briefly, wells of a 48 well culture dish were covert with 150 μL matrigel and the matrigel was gelatinized for 30 min at 37° C. A 80-90% confluent HUVEC (BD Bioscience, San Jose, Calif.) culture was trypsin treated, the detached cells were collected by centrifugation and resuspended in EGM-2 media (BD Bioscience, San Jose, Calif.). Cell concentration was adjusted to 100.000 cells/mL. 400 μL of the cell suspension were filled in the matrigel coated wells, and a solution of the inhibitor was added to the intended final concentration. The plates were incubated at 37° C. with 5% CO2 for 16-18 h. Media was removed, and the matrigel surface was washed twice with 500 μL PBS before cells were labeled with 250 μL 8 μM Calcein AM (Pierce, Rockford, Ill.) in PBS for 30 min at 37° C. After two additional washing steps (500 μL PBS) cells were visualized under an inverted microscope. Fluorescence was excited at 488 nm and recorded at 538 nm. The minimum effect concentration was defined as the minimal inhibitor concentration that caused a definite disturbance of the complexity of the formed tube network.

[6] = system: mouse breast tumor cells (4T1 cells); details: chamber assay with mouse breast tumor cells; reported in WO 2004/087672; cited from earlier work

Compound: CO[C@H]1C=CCC/C=C/C(=O)OC/C(C)=C\[C@@H](C)[C@@H]1O[Si](C)(C)C(C)(C)C
ring closure, yield of all isomers ([1]; from C=CCC/C=C/C(=O)OC/C(C)=C\[C@@H](C)[C@H](O[Si](C)(C)C(C)(C)C)[C@H](C=C)OC, Grubbs II, 0.664 mM, 111.0 °C): 55%

Compound: CO[C@H]1C=CCC/C=C/C(=O)O[C@H]([C@H](C)C(=O)CCCC2CC(=O)NC(=O)C2)/C(C)=C\[C@@H](C)[C@@H]1O[Si](C)(C)C(C)(C)C
ring closure, yield of all isomers ([1]; from C=CCC/C=C/C(=O)O[C@@H](/C(C)=C\[C@@H](C)[C@H](O[Si](C)(C)C(C)(C)C)[C@H](C=C)OC)[C@H](C)C(=O)CCCC1CC(=O)NC(=O)C1, Grubbs II, 0.46 mM, 111.0 °C): 69%

Compound: CO[C@H]1C=CCCCCC(=O)CC/C(C)=C\[C@@H](C)[C@@H]1O[Si](C)(C)C(C)(C)C
ring closure, yield of all isomers ([1]; from C=CCCCCC(=O)CC/C(C)=C\[C@@H](C)[C@H](O[Si](C)(C)C(C)(C)C)[C@H](C=C)OC, Grubbs-II catalyst, 0.508 mM, 110.0 °C): 81%

Compound: CO[C@H]1C=CCCCCC(=O)NC/C(C)=C\[C@@H](C)[C@@H]1O[Si](C)(C)C(C)(C)C
ring closure, yield of all isomers ([1]; from C=CCCCCC(=O)NC/C(C)=C\[C@@H](C)[C@H](O[Si](C)(C)C(C)(C)C)[C@H](C=C)OC, Grubbs II, 0.709 mM, 111.0 °C): 60%

Compound: CO[C@H]1C=CCCCCC(=O)OC/C(C)=C\[C@@H](C)[C@@H]1O[Si](C)(C)C(C)(C)C
ring closure, yield of all isomers ([1]; from C=CCCCCC(=O)OC/C(C)=C\[C@@H](C)[C@H](O[Si](C)(C)C(C)(C)C)[C@H](C=C)OC, Grubbs II, 0.498 mM, 111.0 °C): 76%

Compound: CO[C@H]1C=CCCCCC(=O)O[C@@H](C(C)C)/C(C)=C\[C@@H](C)[C@@H]1O
ring closure, yield of all isomers ([1]; from C=CCCCCC(=O)O[C@H](/C(C)=C\[C@@H](C)[C@H](O[Si](C)(C)C(C)(C)C)[C@H](C=C)OC)C(C)C, Grubbs-II catalyst, 0.53 mM, 110.0 °C, 2 steps): 65%

Compound: CO[C@H]1C=CCCCCC(=O)O[C@H]([C@H](C)C(=O)CCCC2CC(=O)NC(=O)C2)/C(C)=C\[C@@H](C)[C@@H]1O[Si](C)(C)C(C)(C)C
ring closure, yield of all isomers ([1]; from C=CCCCCC(=O)O[C@@H](/C(C)=C\[C@@H](C)[C@H](O[Si](C)(C)C(C)(C)C)[C@H](C=C)OC)[C@H](C)C(=O)CCCC1CC(=O)NC(=O)C1, Grubbs II, 0.48 mM, 111.0 °C): 79%

IC50 [2]: 10 µM
metabolic stability in mouse blood plasma ([3]; mouse, plasma): completely inert toward lactone opening
Compound: COC1C=CCCCCC(=O)OC(C(C)C(=O)CCCC2CC(=O)NC(=O)C2)C(C)=CC(C)C1O (stereo not shown) [Compound 41, 2,3-Dihydromigrastatin]
Minimum effect concentration [4]: 25 µM
Minimum effect concentration [5]: 50 µM

IC50 [2]: 7 µM
metabolic stability in mouse blood plasma ([3]; mouse, plasma): completely inert toward lactone opening
Compound: COC1C=CCCCCC(=O)OC(C(C)C(=O)CCCC2CC(=O)N(C)C(=O)C2)C(C)=CC(C)C1O (stereo not shown) [Compound 42, N-Methyl-2,3-Dihydromigrastatin]

Compound: CO[C@H]1/C=C/CC/C=C/C(=O)OC/C(C)=C\[C@@H](C)[C@@H]1O [Compound 45, Migrastatin Core]
metabolic stability in mouse blood plasma ([3]; test period one hour): hydrolyzed rapidly
Minimum effect concentration [5]: 10 µM

Compound: CO[C@H]1/C=C/CCCCC(=O)OC/C(C)=C\[C@@H](C)[C@@H]1OC(C)=O [Compound 49, Acetylated Macrolactone]
inhibitory activity on tumor cell migration [2]: reduced by roughly an order of magnitude

Compound: CO[C@H]1/C=C/CCCCC(=O)OC/C(C)=C\[C@@H](C)C1=O [Compound 50, Oxidized Macrolactone]
inhibitory activity on tumor cell migration [2]: reduced by roughly an order of magnitude

IC50 ([2]; Mus musculus): 0.378 µM
Compound: CO[C@@H](/C=C/CCCCC(=O)O)[C@@H](O)[C@H](C)/C=C(/C)CO [Compound 51, Hydrolyzed Core]

metabolic stability in mouse blood plasma ([3]; mouse, plasma): no sign of degradation
Compound: COC1C=CCCCCC(=O)OC(C(C)C)C(C)=CC(C)C1O [Compound 65, (S)-Isopropyl Macrolactone]
inhibitory activity on tumor cell migration [2]: only very weak effects on tumor cell migration

metabolic stability in mouse blood plasma ([3]; mouse, plasma): no sign of degradation
Compound: COC1C=CCCCCC(=O)OC(C(C)C)C(C)=CC(C)C1O [Compound 68, (R)-Isopropyl Macrolactone]
inhibitory activity on tumor cell migration [2]: only very weak effects on tumor cell migration

Compound: CO[C@H]1/C=C/CCCCC(O)CC/C(C)=C\[C@@H](C)[C@@H]1O (stereo partly shown) [Compound 69, Macrocyclic Secondary Alcohol]
ability to inhibit tumor cell migration [6]: rather weak migration inhibitors

Compound: CO[C@H]1/C=C/CCCCC(C)(O)CC/C(C)=C\[C@@H](C)[C@@H]1O (stereo partly shown) [Compound 70, Macrocyclic Tertiary Alcohol]
ability to inhibit tumor cell migration [6]: rather weak migration inhibitors

Compound: CO[C@H]1/C=C/CCCCC(O)(C(F)(F)F)CC/C(C)=C\[C@@H](C)[C@@H]1O (stereo partly shown) [Compound 71, Macrocyclic CF3-Alcohol]
ability to inhibit tumor cell migration [6]: displays the same activity profile as macroketone 60

Compound: CO[C@H]1/C=C/CCCCC(=NO)CC/C(C)=C\[C@@H](C)[C@@H]1O [Compound 72, Macrooxime]
ability to inhibit tumor cell migration [6]: rather weak migration inhibitors

Compound: COC1C=CCCC=CC(=O)OC(C(C)C(=O)CCCC2CC(=O)N(C)C(=O)C2)C(C)=CC(C)C1O (stereo not shown) [N-Methyl-migrastatin]
Minimum effect concentration [4]: 100 µM
Minimum effect concentration [5]: 200 µM

From patent publication US8957056B2, “Migrastatin analogs in the treatment of cancer” (Sloan-Kettering Instiute for Cancer Research, priority 2004, dated 2015)
